Laboratory results taken from patent US20100130614A1, “ADMINISTRATION OF ADAPALENE FOR MODULATING THE EXPRESSION OF IL-1ra” (GALDERMA RESEARCH & DEVELOPMENT, priority 2007, published 2010).
“Also recorded” adds a separate entry of the source.

Tests used:
IL-1ra [1] = assay: Immunohistochemistry of IL-1ra expression in explants of healthy human skin; format: cell-based; settings: for intensity of expression of IL-1ra / intensity of expression of IL-1ra in the epidermis: 24 hours; for intensity of expression of IL-1ra: scale 0-3; for intensity of expression of IL-1ra in the epidermis: healthy donors (n=8), scale 0=none to 3=strong, mean (+/−)
Protocol: (§1) Fragments of healthy skin from 8 healthy donors were obtained from mammary plasties (plastic surgery) or from a foreskin (infant surgery).
(§2) The fragments of healthy skin and of acneic skin were incubated at 37° C. in a humid atmosphere and in the presence of 5% CO2 for 24 hours in KGM culture medium without hydrocortisone (PromoCell, Heidelberg, Germany). The culture medium was supplemented with 2 different concentrations of adapalene (Galderma, Sophia Antipolis): 10^−7 M and 10^−6 M. The culture medium alone served as control medium.
(§3) After incubation, the explants were removed from the culture medium and were then frozen in liquid nitrogen for the immunohistochemical study. The culture supernatants were frozen at −80° C. to evaluate the protein secretion using an ELISA assay technique.
(§4) The expression of IL-1ra was evaluated by an immunoperoxidase technique in the explants of healthy skin from 8 healthy donors and of the acneic skin from 8 patients.
For this, cryostat sections 5 μm thick were cut from the skin explants, and were then fixed in acetone at 4° C. for 10 minutes. After saturation of the nonspecific sites with bovine albumin (BSA) for 30 minutes at ambient temperature, the slides were incubated for 30 minutes at ambient temperature and in a humid atmosphere in the presence of the corresponding primary antibody [anti-IL-1ra monoclonal antibody at 10 μg/ml (R&D Systems)] or of an irrelevant isotype antibody for the negative control (normal goat IgG at (R&D Systems), IgG2a monoclonal antibody (DAKO, Trappes, France), IgG1 monoclonal antibody (DAKO)).
After washing for 15 minutes in TBS/0.1% BSA/0.05% Tween 20, the slides were incubated with a biotinylated secondary antibody (DAKO) for 30 minutes at ambient temperature and in a humid atmosphere. After a further washing step, the slides were incubated for 30 minutes in the presence of streptavidin/peroxidise (DAKO) for 30 minutes at ambient temperature and in a humid atmosphere. After a final wash, the slides were incubated for 5 minutes in the presence of AEC (DAKO), a substrate for peroxidise, and then counterstained with Mayer's hemalun. The slides were read under a microscope.
(§5) The slides were read under a Leitz microscope by 2 investigators.
A semi-quantitative scale was used to define the intensity of the labeling: 0=none, 1=weak, 2=medium, 3=strong.
(§6) A mean was established on 8 healthy donors or 8 acneic patients in each of the “control”, “10^−7 M adapalene” and “10^−6 M adapalene” groups.
(§7) The paired Wilcoxon test was employed for the statistical analysis, and p<0.05 (by comparison with the control medium) was considered to be significant.

IL-1ra [2] = assay: Immunohistochemistry of IL-1ra expression in explants of acneic skin; format: cell-based, human; settings: for intensity of expression of IL-1ra in the epidermis: acneic patients (n=8), 24 hours, scale 0-3
Protocol: (§8) A skin biopsy (1×1.5 cm) was obtained from inflammatory papulae of lesions on the back of 8 acneic patients (having received no local treatment for 2 weeks or no general treatment for 1 month, or 3 months with isotretinoin). The fragments sampled were immediately placed in culture.
as §2, §3, §4
For this, cryostat sections 5 μm thick were cut from the skin explants, and were then fixed in acetone at 4° C. for 10 minutes. […]
After washing for 15 minutes in TBS/0.1% BSA/0.05% Tween 20, the slides were incubated with a biotinylated secondary antibody (DAKO) for 30 minutes at ambient temperature and in a humid atmosphere. […] The slides were read under a microscope.
as §5
A semi-quantitative scale was used to define the intensity of the labeling: 0=none, 1=weak, 2=medium, 3=strong. […]

IL-1ra [3] = assay: ELISA assay of IL-1ra secreted in culture supernatants of explants of healthy skin; format: cell-based, human; settings: for amount of IL-1ra secreted in the culture supernatants: healthy skin explants (n=8), 24 hours
Protocol: as §1, §2, §3
(§9) The IL-1ra protein secretion […] in the culture supernatants of the explants of acneic skin and of healthy skin, incubated in the presence or absence of adapalene, was evaluated by means of an ELISA assay using the IL-1ra Cytoscreen detection kit (Biosource Europe S.A., Nivelles, Belgium) and according to the supplier's instructions.
as §6, §7

IL-1ra [4] = assay: ELISA assay of IL-1ra secreted in culture supernatants of explants of acneic skin; format: cell-based, human; settings: for secreted amount of IL-1ra: acneic skin explants (n=8), 24 hours; for increase of secreted IL-1ra compared with the control medium: acneic skin explants
Protocol: as §8, §2, §3, §9, §6, §7

RARγ = target: T1, RARγ (Homo sapiens, UniProt P13631); settings: cited from earlier work
T1 sequence (P13631 1-454): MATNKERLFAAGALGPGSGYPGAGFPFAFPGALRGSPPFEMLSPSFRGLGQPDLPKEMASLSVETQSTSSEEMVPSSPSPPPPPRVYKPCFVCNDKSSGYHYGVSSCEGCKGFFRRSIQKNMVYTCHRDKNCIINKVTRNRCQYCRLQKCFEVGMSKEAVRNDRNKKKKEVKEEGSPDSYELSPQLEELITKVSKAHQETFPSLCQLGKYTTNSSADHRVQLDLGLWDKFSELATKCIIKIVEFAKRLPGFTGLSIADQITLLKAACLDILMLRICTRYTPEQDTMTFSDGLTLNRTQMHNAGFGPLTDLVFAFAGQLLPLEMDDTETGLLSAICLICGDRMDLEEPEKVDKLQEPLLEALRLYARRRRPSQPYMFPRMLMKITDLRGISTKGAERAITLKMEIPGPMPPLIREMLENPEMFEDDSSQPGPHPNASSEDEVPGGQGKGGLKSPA

RARβ = target: T2, RARβ (Homo sapiens, UniProt P10826); settings: cited from earlier work
T2 sequence (P10826 1-455): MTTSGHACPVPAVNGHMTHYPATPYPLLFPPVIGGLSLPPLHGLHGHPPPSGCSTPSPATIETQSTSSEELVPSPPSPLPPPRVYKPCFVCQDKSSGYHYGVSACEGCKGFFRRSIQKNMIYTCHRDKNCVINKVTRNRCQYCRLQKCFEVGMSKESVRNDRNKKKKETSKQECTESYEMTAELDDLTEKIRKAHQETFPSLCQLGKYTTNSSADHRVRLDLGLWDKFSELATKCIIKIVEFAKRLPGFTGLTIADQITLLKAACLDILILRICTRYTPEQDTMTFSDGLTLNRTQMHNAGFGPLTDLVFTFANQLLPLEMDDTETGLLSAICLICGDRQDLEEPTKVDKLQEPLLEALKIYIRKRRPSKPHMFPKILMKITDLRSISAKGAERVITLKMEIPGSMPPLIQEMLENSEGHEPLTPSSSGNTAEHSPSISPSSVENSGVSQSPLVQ

[5] = tested on: cellular retinoic acid binding proteins; settings: cited from earlier work
lipoxygenase pathway = settings: cited from earlier work
[6] = tested on: polymorphonuclear neutrophils; settings: cited from earlier work
free radicals = settings: cited from earlier work
[7] = tested on: superficial inflammatory lesions; settings: clinically; cited from earlier work

## COc1ccc(-c2ccc3cc(C(=O)O)ccc3c2)cc1C12CC3CC(CC(C3)C1)C2 [adapalene, 6-[3-(1-adamantyl)-4-methoxyphenyl]-2-naphthoic acid]
IL-1ra [1]; 1st subgroup of healthy donors (n=4, weak control expression), 10^−6 M adapalene
  intensity of expression of IL-1ra: 1.2 (+/−0.4)
IL-1ra [1]; 1st subgroup of healthy donors (n=4, weak control expression), 10^−7 M adapalene
  intensity of expression of IL-1ra: 1.1 (+/−0.4)
IL-1ra [1]; 1st subgroup of healthy donors, expression in the control medium weak
  modulatory effect on the expression of IL-1ra (in words): an inducing effect
IL-1ra [1]; 2nd subgroup of healthy donors (n=4, greater control expression), 10^−6 M adapalene
  intensity of expression of IL-1ra: 0.5 (+/−0.0)
IL-1ra [1]; 2nd subgroup of healthy donors (n=4, greater control expression), 10^−7 M adapalene
  intensity of expression of IL-1ra: 0.5 (+/−0.0)
IL-1ra [1]; 2nd subgroup of healthy donors, expression in the control medium greater
  modulatory effect on the expression of IL-1ra (in words): an inhibitory effect
IL-1ra [1]; 10^−6 M adapalene
  intensity of expression of IL-1ra in the epidermis: 0.8 (+/−0.4)
IL-1ra [1]; 10^−7 M adapalene
  intensity of expression of IL-1ra in the epidermis: 0.9 (+/−0.5)
IL-1ra [1]; mean of 8 healthy donors, 10^−7 M and 10^−6 M
  modulatory effect on the expression of IL-1ra in the epidermis (in words): No significant modulation; also recorded: does not demonstrate a modulatory effect
IL-1ra [2]; 10^−6 M adapalene
  intensity of expression of IL-1ra in the epidermis: 0.9 (+/−0.7)
IL-1ra [2]; 10^−7 M adapalene
  intensity of expression of IL-1ra in the epidermis: 0.8 (+/−0.8)
IL-1ra [2]; acneic patients, 10^−7 M and 10^−6 M
  effect on the expression of IL-1ra in the epidermis (in words): increases the expression
IL-1ra [3]; 10^−6 M adapalene
  amount of IL-1ra secreted in the culture supernatants: 564 pg
IL-1ra [3]; 10^−7 M adapalene
  amount of IL-1ra secreted in the culture supernatants: 600 pg
IL-1ra [3]; healthy skin explants, 10^−6 M adapalene
  decrease of secreted IL-1ra compared with the control medium: 3.5%
IL-1ra [3]; healthy skin explants, 10^−7 M adapalene
  increase of secreted IL-1ra compared with the control medium: 2.6%
IL-1ra [4]; 10^−6 M adapalene
  secreted amount of IL-1ra: 1161 pg
  increase of secreted IL-1ra compared with the control medium: 1.4%
IL-1ra [4]; 10^−7 M adapalene
  secreted amount of IL-1ra: 1196 pg
  increase of secreted IL-1ra compared with the control medium: 4.4%
RARγ
  binding to RARγ (in words): binds selectively
RARβ
  binding to RARβ (in words): binds selectively
[5]
  binding to cellular retinoic acid binding proteins (in words): does not, on the other hand, bind
Lipoxygenase pathway
  oxidative metabolism of arachidonic acid via the lipoxygenase pathway (in words): inhibits
  production of leukotrienes via the lipoxygenase pathway (in words): inhibits
[6]
  chemotaxis of polymorphonuclear neutrophils (in words): inhibits
Free radicals
  production of free radicals (in words): inhibits
[7]
  clinical activity on superficial inflammatory lesions (in words): exhibits an activity
